The supplement of paper PMC10307832

Legend:
Test in all cases: relative viability (nuclei count vs DMSO), 5 days (fraction); higher = more cells survive
NCI-H520 = system: NCI-H520
Outline: (§1)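 For relative viability, nuclei counts in treated wells were divided by those in vehicle wells. Lung cancer cell lines had been pin-tool dosed in 1536-well plates the day after seeding and cultured for 5 days, then fixed and stained in one step (final 0.05% Triton X-100, 1% formaldehyde, 1 ug/ml Hoechst) and imaged at 4×. Doses were one drug alone or a fixed anchor-drug dose plus five library-drug doses (not always all listed) in √10 steps, and values are duplicate-plate medians.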

IA-LM = system: IA-LM
Outline: as §1

NCI-H1299 = system: NCI-H1299
Outline: as §1

Calu-6 = system: Calu-6
Outline: as §1

LCLC-103H = system: LCLC-103H
Outline: as §1

EBC-1 = system: EBC-1
Outline: as §1

NCI-H1355 = system: NCI-H1355
Outline: as §1

NCI-H1703 = system: NCI-H1703
Outline: as §1

A549 = system: A549
Outline: as §1

Work on `C=C1C(=O)O[C@@H](CCCCCCCC)[C@@H]1C(=O)O` [C-75] + C[C@@H](Oc1cc(-c2cnn(C3CCNCC3)c2)cnc1N)c1c(Cl)ccc(F)c1Cl [Crizotinib] (partner 1 µM) yielded a relative viability (NCI-H520; first compound 0.08 µM) of 0.607, a relative viability (NCI-H520; first compound 0.253 µM) of 0.841 and a relative viability (NCI-H520; first compound 0.8 µM) of 0.673. For the same compound, the relative viability (NCI-H520; first compound 2.53 µM) was 0.706, the relative viability (NCI-H520; first compound 8 µM) was 0.651 and the relative viability (IA-LM; first compound 0.08 µM) was 0.956. For the same compound, the relative viability (IA-LM; first compound 0.253 µM) was 1.09, the relative viability (IA-LM; first compound 8 µM) was 0.504 and the relative viability (NCI-H1299; first compound 0.08 µM) was 0.939. For the same compound, the relative viability (NCI-H1299; first compound 0.253 µM) was 0.932, the relative viability (NCI-H1299; first compound 0.8 µM) was 0.967 and the relative viability (NCI-H1299; first compound 2.53 µM) was 0.853. It also gave a relative viability (NCI-H1299; first compound 8 µM) of 0.927, a relative viability (Calu-6; first compound 0.08 µM) of 0.816 and a relative viability (Calu-6; first compound 0.253 µM) of 0.824. It also gave a relative viability (Calu-6; first compound 0.8 µM) of 0.711, a relative viability (Calu-6; first compound 2.53 µM) of 0.623 and a relative viability (Calu-6; first compound 8 µM) of 0.761. It also gave a relative viability (LCLC-103H; first compound 0.08 µM) of 1.08, a relative viability (LCLC-103H; first compound 0.253 µM) of 1.03 and a relative viability (LCLC-103H; first compound 0.8 µM) of 1.05. The relative viability (LCLC-103H; first compound 2.53 µM) was 0.899, the relative viability (LCLC-103H; first compound 8 µM) was 0.978 and the relative viability (EBC-1; first compound 0.08 µM) was 0.179. It also gave a relative viability (EBC-1; first compound 0.253 µM) of 0.184, a relative viability (EBC-1; first compound 0.8 µM) of 0.225 and a relative viability (EBC-1; first compound 2.53 µM) of 0.179. The relative viability (EBC-1; first compound 8 µM) was 0.211, the relative viability (NCI-H1355; first compound 0.08 µM) was 1.05 and the relative viability (NCI-H1355; first compound 0.253 µM) was 1.01. It also gave a relative viability (NCI-H1355; first compound 0.8 µM) of 0.97, a relative viability (NCI-H1355; first compound 2.53 µM) of 1.1 and a relative viability (NCI-H1355; first compound 8 µM) of 1.01. The relative viability (NCI-H1703; first compound 0.08 µM) was 0.688, the relative viability (NCI-H1703; first compound 0.8 µM) was 0.495 and the relative viability (NCI-H1703; first compound 2.53 µM) was 0.683. For the same compound, the relative viability (NCI-H1703; first compound 8 µM) was 0.587, the relative viability (A549; first compound 0.08 µM) was 0.763 and the relative viability (A549; first compound 0.253 µM) was 0.715. It also gave a relative viability (A549; first compound 0.8 µM) of 0.651, a relative viability (A549; first compound 2.53 µM) of 0.81 and a relative viability (A549; first compound 8 µM) of 0.593.

`O=C(O)c1ccc(-c2c[nH]c3ncc(-c4ccccc4)cc23)cc1C1CCCC1` + Cc1nc(NC(=O)N2CCC[C@H]2C(N)=O)sc1-c1ccnc(C(C)(C)C(F)(F)F)c1 [Alpelisib] (partner 2 µM) gave a relative viability (NCI-H520; first compound 0.04 µM) of 0.836, a relative viability (NCI-H520; first compound 0.1265 µM) of 1.09 and a relative viability (NCI-H520; first compound 0.4 µM) of 0.866. For the same compound, the relative viability (NCI-H520; first compound 1.265 µM) was 0.852, the relative viability (IA-LM; first compound 0.04 µM) was 0.77 and the relative viability (IA-LM; first compound 0.1265 µM) was 0.913. It also gave a relative viability (IA-LM; first compound 0.4 µM) of 0.713, a relative viability (IA-LM; first compound 1.265 µM) of 0.737 and a relative viability (NCI-H1299; first compound 0.04 µM) of 1. The relative viability (NCI-H1299; first compound 0.1265 µM) was 1.09, the relative viability (NCI-H1299; first compound 0.4 µM) was 1.05 and the relative viability (NCI-H1299; first compound 1.265 µM) was 0.957. The relative viability (Calu-6; first compound 0.04 µM) was 1.04, the relative viability (Calu-6; first compound 0.1265 µM) was 0.978 and the relative viability (Calu-6; first compound 0.4 µM) was 0.825. The relative viability (Calu-6; first compound 1.265 µM) was 0.682, the relative viability (LCLC-103H; first compound 0.04 µM) was 1.01 and the relative viability (LCLC-103H; first compound 0.1265 µM) was 1.02. For the same compound, the relative viability (LCLC-103H; first compound 0.4 µM) was 1.08, the relative viability (LCLC-103H; first compound 1.265 µM) was 0.984 and the relative viability (EBC-1; first compound 0.04 µM) was 0.848. For the same compound, the relative viability (EBC-1; first compound 0.1265 µM) was 0.719, the relative viability (EBC-1; first compound 0.4 µM) was 0.939 and the relative viability (EBC-1; first compound 1.265 µM) was 0.48. For the same compound, the relative viability (NCI-H1355; first compound 0.04 µM) was 0.795, the relative viability (NCI-H1355; first compound 0.1265 µM) was 0.804 and the relative viability (NCI-H1355; first compound 0.4 µM) was 0.819. For the same compound, the relative viability (NCI-H1355; first compound 1.265 µM) was 0.621, the relative viability (NCI-H1703; first compound 0.1265 µM) was 0.405 and the relative viability (NCI-H1703; first compound 0.4 µM) was 0.395. The relative viability (NCI-H1703; first compound 1.265 µM) was 0.332, the relative viability (A549; first compound 0.04 µM) was 0.728 and the relative viability (A549; first compound 0.1265 µM) was 0.787. It also gave a relative viability (A549; first compound 0.4 µM) of 0.869 and a relative viability (A549; first compound 1.265 µM) of 0.499.

`Oc1nc(-c2ccc(C(F)(F)F)cc2)nc2c1CSCC2` [XAV939] + Cc1nc(NC(=O)N2CCC[C@H]2C(N)=O)sc1-c1ccnc(C(C)(C)C(F)(F)F)c1 [Alpelisib] (partner 2 µM) gave a relative viability (NCI-H520; first compound 0.08 µM) of 0.842, a relative viability (NCI-H520; first compound 0.253 µM) of 0.755 and a relative viability (NCI-H520; first compound 0.8 µM) of 0.916. The relative viability (NCI-H520; first compound 2.53 µM) was 0.648, the relative viability (IA-LM; first compound 0.08 µM) was 0.77 and the relative viability (IA-LM; first compound 0.253 µM) was 0.693. The relative viability (IA-LM; first compound 0.8 µM) was 0.705, the relative viability (IA-LM; first compound 2.53 µM) was 0.557 and the relative viability (NCI-H1299; first compound 0.08 µM) was 1.08. It also gave a relative viability (NCI-H1299; first compound 0.253 µM) of 1.04, a relative viability (NCI-H1299; first compound 0.8 µM) of 1.09 and a relative viability (NCI-H1299; first compound 2.53 µM) of 1.11. It also gave a relative viability (Calu-6; first compound 0.08 µM) of 1.08, a relative viability (Calu-6; first compound 0.253 µM) of 0.887 and a relative viability (Calu-6; first compound 0.8 µM) of 0.919. For the same compound, the relative viability (Calu-6; first compound 2.53 µM) was 0.948, the relative viability (LCLC-103H; first compound 0.08 µM) was 0.941 and the relative viability (LCLC-103H; first compound 0.253 µM) was 0.766. It also gave a relative viability (LCLC-103H; first compound 0.8 µM) of 0.852, a relative viability (LCLC-103H; first compound 2.53 µM) of 0.873 and a relative viability (EBC-1; first compound 0.08 µM) of 0.874. The relative viability (EBC-1; first compound 0.253 µM) was 0.71, the relative viability (EBC-1; first compound 0.8 µM) was 0.716 and the relative viability (EBC-1; first compound 2.53 µM) was 0.726. It also gave a relative viability (NCI-H1355; first compound 0.08 µM) of 0.78, a relative viability (NCI-H1355; first compound 0.253 µM) of 0.654 and a relative viability (NCI-H1355; first compound 0.8 µM) of 0.75. It also gave a relative viability (NCI-H1355; first compound 2.53 µM) of 0.489, a relative viability (NCI-H1703; first compound 0.08 µM) of 0.397 and a relative viability (NCI-H1703; first compound 0.253 µM) of 0.301. The relative viability (NCI-H1703; first compound 0.8 µM) was 0.307, the relative viability (NCI-H1703; first compound 2.53 µM) was 0.324 and the relative viability (A549; first compound 0.08 µM) was 0.877. The relative viability (A549; first compound 0.253 µM) was 0.371, the relative viability (A549; first compound 0.8 µM) was 0.484 and the relative viability (A549; first compound 2.53 µM) was 0.524.
